From ChEMBL document CHEMBL1201862, “PubChem BioAssay data set” (2004)
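Compound exposure: 48 hours, 5 concentrations, 96-well plates. At the GI50, growth is halved.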 Activity calls are given as the source filed them. Rule as the data show it: active = GI50 up to about 1.1 µM and inactive = higher.

Experiments:
Assay in all cases: inhibition of tumour cell growth, NCI panel, 48 h
OVCAR-5 = system: OVCAR-5
OVCAR-4 = system: OVCAR-4
SK-MEL-28 = system: SK-MEL-28
SK-OV-3 = system: SK-OV-3
MDA-N = system: MDA-N
EKVX = system: EKVX
KM12 = system: KM12
SN12C = system: SN12C
COLO 205 = system: COLO 205
MCF7 = system: MCF7
LOX IMVI = system: LOX IMVI
SF-268 = system: SF-268
786-0 = system: 786-0
NCI-H522 = system: NCI-H522
MOLT-4 = system: MOLT-4
K562 = system: K562
UACC-62 = system: UACC-62
HT-29 = system: HT-29
M14 = system: M14
HCC 2998 = system: HCC 2998

Measured: GI50

c1ccc(CN2CCCN3CCN(CCCN(Cc4ccccc4)CC3)CC2)cc1
inactive: OVCAR-5 > 100 µM | OVCAR-4 35.6 µM | SK-MEL-28 39.4 µM | SK-OV-3 > 100 µM | MDA-N 30.5 µM | EKVX 41.9 µM | KM12 31.6 µM | SN12C 31.5 µM | COLO 205 25.3 µM | MCF7 38.3 µM | LOX IMVI 51.9 µM | SF-268 78.7 µM | 786-0 42.2 µM | NCI-H522 36.1 µM | MOLT-4 81.3 µM | K562 32 µM | UACC-62 35.1 µM | HT-29 35.9 µM | M14 38 µM

O=C(O)CN1CCN2CCCCCCCCN(CC1)CCN(CC(=O)O)CC2
inactive: OVCAR-5 > 100 µM | OVCAR-4 > 100 µM | SK-MEL-28 > 100 µM | SK-OV-3 > 100 µM | MDA-N > 100 µM | EKVX > 100 µM | KM12 75.2 µM | SN12C > 100 µM | COLO 205 > 100 µM | MCF7 > 100 µM | LOX IMVI > 100 µM | 786-0 > 100 µM | NCI-H522 64.6 µM | MOLT-4 > 100 µM | K562 > 100 µM | UACC-62 > 100 µM | HT-29 43.5 µM | M14 > 100 µM

NC(=O)NC1C(c2ccccc2)=C1c1ccccc1
inactive: OVCAR-5 23.2 µM | OVCAR-4 15.3 µM | SK-MEL-28 17.1 µM | SK-OV-3 15.6 µM | MDA-N 14.5 µM | EKVX 26.8 µM | KM12 19.2 µM | SN12C 13.6 µM | COLO 205 13 µM | MCF7 14.7 µM | LOX IMVI 13.5 µM | SF-268 13.4 µM | 786-0 22.4 µM | MOLT-4 4.88 µM | K562 15.4 µM | HCC 2998 16.5 µM | UACC-62 9.23 µM | HT-29 21.7 µM | M14 19.1 µM

Cc1ccc(S(=O)(=O)N/N=C2/C(=O)Nc3c(Cl)cc(Cl)cc32)cc1
inactive: OVCAR-5 > 100 µM | OVCAR-4 > 100 µM | SK-MEL-28 > 100 µM | SK-OV-3 > 100 µM | MDA-N 68.9 µM | EKVX 5.52 µM | KM12 > 100 µM | SN12C > 100 µM | COLO 205 68.7 µM | MCF7 75 µM | LOX IMVI 37.8 µM | 786-0 > 100 µM | MOLT-4 38.5 µM | K562 72.1 µM | HCC 2998 75.9 µM | UACC-62 62.5 µM | HT-29 39.1 µM | M14 73.5 µM

O=c1cc(CSc2c(-c3ccccc3)c(=O)n(-c3ccccc3)c(=S)n2-c2ccccc2)[nH]c(=O)[nH]1
inactive: OVCAR-5 > 100 µM | SK-MEL-28 > 100 µM | SK-OV-3 > 100 µM | MDA-N > 100 µM | EKVX > 100 µM | KM12 > 100 µM | SN12C > 100 µM | COLO 205 > 100 µM | MCF7 > 100 µM | SF-268 > 100 µM | 786-0 > 100 µM | MOLT-4 > 100 µM | K562 > 100 µM | HCC 2998 > 100 µM | UACC-62 > 100 µM | HT-29 > 100 µM | M14 > 100 µM

Cc1ccc(S(=O)(=O)N2CCCSCCSCCCN(S(=O)(=O)c3ccc(C)cc3)CC2)cc1
inactive: OVCAR-5 > 100 µM | OVCAR-4 > 100 µM | SK-MEL-28 > 100 µM | SK-OV-3 > 100 µM | MDA-N > 100 µM | EKVX > 100 µM | KM12 > 100 µM | SN12C > 100 µM | COLO 205 > 100 µM | MCF7 > 100 µM | SF-268 > 100 µM | 786-0 > 100 µM | MOLT-4 > 100 µM | HCC 2998 > 100 µM | UACC-62 > 100 µM | HT-29 > 100 µM | M14 > 100 µM

O=C1C=C(c2c(-c3ccccc3)[nH]c3ccccc23)C(=O)N1c1ccccc1
inactive: OVCAR-5 14.8 µM | SK-MEL-28 13.3 µM | SK-OV-3 24.8 µM | MDA-N 3.89 µM | EKVX 12.4 µM | SN12C 6.65 µM | COLO 205 8.3 µM | MCF7 6.19 µM | LOX IMVI 3.77 µM | SF-268 4.63 µM | 786-0 8.65 µM | MOLT-4 25.2 µM | K562 7.41 µM | HCC 2998 7.94 µM | UACC-62 10.7 µM | HT-29 7.18 µM | M14 11.4 µM

Cc1cc(C)n(CN(CCCCO)Cn2nc(C)cc2C)n1
inactive: OVCAR-5 23.2 µM | OVCAR-4 24.7 µM | SK-MEL-28 17.7 µM | SK-OV-3 > 100 µM | MDA-N 17.5 µM | EKVX 35.3 µM | KM12 23 µM | SN12C 26 µM | COLO 205 17.2 µM | MCF7 26.8 µM | LOX IMVI 22.8 µM | SF-268 25.6 µM | 786-0 14.8 µM | NCI-H522 23.8 µM | MOLT-4 14.2 µM | K562 19.9 µM | UACC-62 19.1 µM | HT-29 17.9 µM | M14 18.5 µM

O=C(NNC(=O)c1ccccc1O)c1cccs1
inactive: OVCAR-5 45 µM | OVCAR-4 > 100 µM | SK-MEL-28 > 100 µM | SK-OV-3 24.4 µM | MDA-N > 100 µM | EKVX 34.4 µM | KM12 39.4 µM | SN12C > 100 µM | COLO 205 46.5 µM | MCF7 52.2 µM | LOX IMVI 66.4 µM | SF-268 19 µM | 786-0 > 100 µM | NCI-H522 3.51 µM | MOLT-4 54.7 µM | K562 > 100 µM | UACC-62 49.8 µM | HT-29 33.3 µM | M14 35.5 µM

NC(CC(=O)Nc1cc(C(F)(F)F)ccc1Cl)=NO
inactive: OVCAR-5 > 100 µM | OVCAR-4 > 100 µM | SK-MEL-28 > 100 µM | SK-OV-3 > 100 µM | MDA-N > 100 µM | EKVX > 100 µM | KM12 > 100 µM | SN12C > 100 µM | COLO 205 > 100 µM | MCF7 > 100 µM | LOX IMVI > 100 µM | SF-268 > 100 µM | 786-0 > 100 µM | NCI-H522 > 100 µM | MOLT-4 > 100 µM | K562 > 100 µM | UACC-62 > 100 µM | HT-29 > 100 µM | M14 > 100 µM

CC(=O)N/N=C1\NC(=O)C[C@H]2[C@@H]3CC=C4C[C@@H](OC(C)=O)CC[C@]4(C)[C@H]3CC[C@]12C
inactive: OVCAR-5 > 100 µM | OVCAR-4 11.2 µM | SK-MEL-28 13.4 µM | SK-OV-3 21.1 µM | MDA-N 7.16 µM | EKVX 36.1 µM | KM12 38.9 µM | SN12C 29.6 µM | COLO 205 45.3 µM | MCF7 46.9 µM | LOX IMVI 35.4 µM | SF-268 27.7 µM | 786-0 16 µM | NCI-H522 32.1 µM | MOLT-4 > 100 µM | K562 > 100 µM | UACC-62 16.8 µM | HT-29 31.4 µM | M14 30.8 µM

COc1ccc2nc3n(c2c1)C(c1c(F)cccc1Cl)SC3 (stereo not given)
inactive: OVCAR-5 > 100 µM | OVCAR-4 > 100 µM | SK-MEL-28 > 100 µM | SK-OV-3 > 100 µM | MDA-N > 100 µM | EKVX > 100 µM | KM12 > 100 µM | SN12C > 100 µM | COLO 205 > 100 µM | MCF7 > 100 µM | LOX IMVI > 100 µM | 786-0 > 100 µM | MOLT-4 > 100 µM | K562 > 100 µM | HCC 2998 > 100 µM | UACC-62 > 100 µM | M14 > 100 µM

Nc1ccc(S2(c3ccc(N)cc3)C=C(c3ccccc3)C(c3ccccc3)=C2)cc1
inactive: OVCAR-5 > 65.6 µM | OVCAR-4 11 µM | SK-MEL-28 > 31.1 µM | SK-OV-3 > 26.9 µM | MDA-N > 30.2 µM | EKVX > 100 µM | KM12 > 54.7 µM | SN12C > 25.3 µM | COLO 205 > 45 µM | MCF7 > 32.1 µM | LOX IMVI > 33.5 µM | SF-268 > 44.5 µM | 786-0 24 µM | MOLT-4 > 73.8 µM | K562 > 46.9 µM | HCC 2998 > 54 µM | UACC-62 > 35.6 µM | HT-29 > 44.7 µM | M14 > 72.8 µM

O=C(C=P(c1ccccc1)(c1ccccc1)c1ccccc1)c1ccc(-c2ccc(F)cc2F)cc1
inactive: OVCAR-5 2.96 µM | OVCAR-4 2.9 µM | SK-MEL-28 2.95 µM | SK-OV-3 2.83 µM | MDA-N 2.78 µM | EKVX 3.17 µM | KM12 3.42 µM | SN12C 2.31 µM | COLO 205 1.64 µM | MCF7 2.55 µM | LOX IMVI 2 µM | SF-268 4.03 µM | 786-0 3.56 µM | MOLT-4 1.83 µM | K562 2.18 µM | HCC 2998 2.08 µM | UACC-62 1.85 µM | HT-29 2.18 µM | M14 2.42 µM

CN(C)Cc1ccc(-c2cc3onc(-c4ccccc4)c3c(=O)n2C)cc1
inactive: OVCAR-5 40.6 µM | OVCAR-4 84.9 µM | SK-MEL-28 18.9 µM | SK-OV-3 48.8 µM | MDA-N 17.6 µM | EKVX > 100 µM | KM12 19.5 µM | SN12C 55.6 µM | COLO 205 20 µM | MCF7 41.2 µM | LOX IMVI 17.9 µM | SF-268 31.2 µM | 786-0 17.3 µM | NCI-H522 18.7 µM | MOLT-4 17.8 µM | K562 17.7 µM | UACC-62 25.9 µM | HT-29 11 µM | M14 15.1 µM
